# Experimental data taken from US20240092835A1, “NOVEL PEPTIDES CAPABLE OF ALTERING NK CELL ACTIVITY” (Massachusetts Institute of Technology, priority 2022, published 2024).
# Where no end group is shown, it is not given here.
# Key:
# CD94/NKG2C = CD94/NKG2C (Homo sapiens, UniProt P26717+Q13241); experiment: Steady-state surface plasmon resonance of peptide-HLA-E complex with CD94/NKG2C; type: binding; details: for Binding of peptide-HLA-E complexes to CD94/NKG2C normalized to a theoretical Rmax: steady-state SPR
# Procedure: (§1) Binding affinity of novel peptides linked to HLA-E was determined using surface plasmon resonance (SPR), a methodology used to study protein-protein interactions (Tables 15-19). The peptide-HLA-E complex (generated as a single chain trimer) was immobilized on the sensor chip surface and CD94/NKG2A or CD94/NKG2C were flowed over. Steady-state surface plasmon resonance experiments were performed with a Biacore T200 instrument. CD94/NKG2x in HBS-EP+ buffer was injected as analyte in a concentration range of 0.1 μM to 102.4 μM and flow rate of 10 μL/min at 25° C. Data was fit with Prism 9.4 (GraphPad Software Inc; San Diego CA) to a “one site, specific binding” model. Series S CM5 chips were coupled to neutravidin and utilized. Biotinylated pMHC was immobilized at approximately 400 RU. KD values calculated by Biacore software are reported. Rmax, fit values were calculated by Biacore software. Rmax, theoretical values were calculated using the analyte/ligand mass ratio (0.66) multiplied by the amount of ligand coupled to the chip.
# CD94/NKG2A = CD94/NKG2A (Homo sapiens, UniProt P26715+Q13241); experiment: Steady-state surface plasmon resonance of peptide-HLA-E complex with CD94/NKG2A; type: binding; details: for Binding of peptide-HLA-E complexes to CD94/NKG2A normalized to a theoretical Rmax: steady-state SPR
# Procedure: as §1
# Sequence of CD94/NKG2A (P26715 94-233 limits assumed): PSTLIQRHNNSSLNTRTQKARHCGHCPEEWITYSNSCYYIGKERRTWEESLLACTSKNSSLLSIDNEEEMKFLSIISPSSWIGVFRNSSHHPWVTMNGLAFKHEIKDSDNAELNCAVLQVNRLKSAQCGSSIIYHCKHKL
# Sequence of CD94/NKG2A (Q13241 32-179 limits assumed): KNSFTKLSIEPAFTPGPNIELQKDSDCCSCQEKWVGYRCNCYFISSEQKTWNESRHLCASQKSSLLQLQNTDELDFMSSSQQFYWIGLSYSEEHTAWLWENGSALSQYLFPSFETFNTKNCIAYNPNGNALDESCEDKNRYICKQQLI
# Sequence of CD94/NKG2C (P26717 94-231 limits assumed): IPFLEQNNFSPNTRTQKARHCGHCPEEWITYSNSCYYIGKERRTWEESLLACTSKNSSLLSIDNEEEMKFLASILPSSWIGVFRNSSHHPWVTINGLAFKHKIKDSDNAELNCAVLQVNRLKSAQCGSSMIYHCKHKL
# Sequence of CD94/NKG2C (Q13241 32-179 limits assumed): as the sequence (Q13241 32-179 limits assumed) above
sequence,measurement,setting,value
"QMPSRSLLF [human1, QMPSRSLLF]",binding of peptide-HLA-E complex to CD94/NKG2C normalized to a fitted Rmax,CD94/NKG2C; CD94/NKG2C concentration 0 μM,−0.007
same,binding of peptide-HLA-E complex to CD94/NKG2C normalized to a fitted Rmax,CD94/NKG2C; CD94/NKG2C concentration 0.1 μM,0.007
same,binding of peptide-HLA-E complex to CD94/NKG2C normalized to a fitted Rmax,CD94/NKG2C; CD94/NKG2C concentration 0.2 μM,0.017
same,binding of peptide-HLA-E complex to CD94/NKG2C normalized to a fitted Rmax,CD94/NKG2C; CD94/NKG2C concentration 0.4 μM,0.038
same,binding of peptide-HLA-E complex to CD94/NKG2C normalized to a fitted Rmax,CD94/NKG2C; CD94/NKG2C concentration 0.8 μM,0.076
same,binding of peptide-HLA-E complex to CD94/NKG2C normalized to a fitted Rmax,CD94/NKG2C; CD94/NKG2C concentration 1.6 μM,0.144
same,binding of peptide-HLA-E complex to CD94/NKG2C normalized to a fitted Rmax,CD94/NKG2C; CD94/NKG2C concentration 3.2 μM,0.246
same,binding of peptide-HLA-E complex to CD94/NKG2C normalized to a fitted Rmax,CD94/NKG2C; CD94/NKG2C concentration 6.4 μM,0.394
same,binding of peptide-HLA-E complex to CD94/NKG2C normalized to a fitted Rmax,CD94/NKG2C; CD94/NKG2C concentration 12.8 μM,0.564
same,binding of peptide-HLA-E complex to CD94/NKG2C normalized to a fitted Rmax,CD94/NKG2C; CD94/NKG2C concentration 25.6 μM,0.723
same,binding of peptide-HLA-E complex to CD94/NKG2C normalized to a fitted Rmax,CD94/NKG2C; CD94/NKG2C concentration 51.2 μM,0.832
same,binding of peptide-HLA-E complex to CD94/NKG2C normalized to a fitted Rmax,CD94/NKG2C; CD94/NKG2C concentration 102.4 μM,0.912
same,Binding of peptide-HLA-E complexes to CD94/NKG2C normalized to a theoretical Rmax,CD94/NKG2C; CD94/NKG2C analyte concentration 0 μM,−0.004
same,Binding of peptide-HLA-E complexes to CD94/NKG2C normalized to a theoretical Rmax,CD94/NKG2C; CD94/NKG2C analyte concentration 0.1 μM,0.004
same,Binding of peptide-HLA-E complexes to CD94/NKG2C normalized to a theoretical Rmax,CD94/NKG2C; CD94/NKG2C analyte concentration 0.2 μM,0.010
same,Binding of peptide-HLA-E complexes to CD94/NKG2C normalized to a theoretical Rmax,CD94/NKG2C; CD94/NKG2C analyte concentration 0.4 μM,0.023
same,Binding of peptide-HLA-E complexes to CD94/NKG2C normalized to a theoretical Rmax,CD94/NKG2C; CD94/NKG2C analyte concentration 0.8 μM,0.047
same,Binding of peptide-HLA-E complexes to CD94/NKG2C normalized to a theoretical Rmax,CD94/NKG2C; CD94/NKG2C analyte concentration 1.6 μM,0.088
same,Binding of peptide-HLA-E complexes to CD94/NKG2C normalized to a theoretical Rmax,CD94/NKG2C; CD94/NKG2C analyte concentration 3.2 μM,0.151
same,Binding of peptide-HLA-E complexes to CD94/NKG2C normalized to a theoretical Rmax,CD94/NKG2C; CD94/NKG2C analyte concentration 6.4 μM,0.242
same,Binding of peptide-HLA-E complexes to CD94/NKG2C normalized to a theoretical Rmax,CD94/NKG2C; CD94/NKG2C analyte concentration 12.8 μM,0.346
same,Binding of peptide-HLA-E complexes to CD94/NKG2C normalized to a theoretical Rmax,CD94/NKG2C; CD94/NKG2C analyte concentration 25.6 μM,0.444
same,Binding of peptide-HLA-E complexes to CD94/NKG2C normalized to a theoretical Rmax,CD94/NKG2C; CD94/NKG2C analyte concentration 51.2 μM,0.511
same,Binding of peptide-HLA-E complexes to CD94/NKG2C normalized to a theoretical Rmax,CD94/NKG2C; CD94/NKG2C analyte concentration 102.4 μM,0.560
same,binding of peptide-HLA-E complex to CD94/NKG2A normalized to a fitted Rmax,CD94/NKG2A; CD94/NKG2A concentration 0 μM,−0.006
same,binding of peptide-HLA-E complex to CD94/NKG2A normalized to a fitted Rmax,CD94/NKG2A; CD94/NKG2A concentration 0.1 μM,0.035
same,binding of peptide-HLA-E complex to CD94/NKG2A normalized to a fitted Rmax,CD94/NKG2A; CD94/NKG2A concentration 0.2 μM,0.068
same,binding of peptide-HLA-E complex to CD94/NKG2A normalized to a fitted Rmax,CD94/NKG2A; CD94/NKG2A concentration 0.4 μM,0.128
same,binding of peptide-HLA-E complex to CD94/NKG2A normalized to a fitted Rmax,CD94/NKG2A; CD94/NKG2A concentration 0.8 μM,0.221
same,binding of peptide-HLA-E complex to CD94/NKG2A normalized to a fitted Rmax,CD94/NKG2A; CD94/NKG2A concentration 1.6 μM,0.349
same,binding of peptide-HLA-E complex to CD94/NKG2A normalized to a fitted Rmax,CD94/NKG2A; CD94/NKG2A concentration 3.2 μM,0.506
same,binding of peptide-HLA-E complex to CD94/NKG2A normalized to a fitted Rmax,CD94/NKG2A; CD94/NKG2A concentration 6.4 μM,0.664
same,binding of peptide-HLA-E complex to CD94/NKG2A normalized to a fitted Rmax,CD94/NKG2A; CD94/NKG2A concentration 12.8 μM,0.798
same,binding of peptide-HLA-E complex to CD94/NKG2A normalized to a fitted Rmax,CD94/NKG2A; CD94/NKG2A concentration 25.6 μM,0.896
same,binding of peptide-HLA-E complex to CD94/NKG2A normalized to a fitted Rmax,CD94/NKG2A; CD94/NKG2A concentration 51.2 μM,0.950
same,binding of peptide-HLA-E complex to CD94/NKG2A normalized to a fitted Rmax,CD94/NKG2A; CD94/NKG2A concentration 102.4 μM,0.996
same,Binding of peptide-HLA-E complexes to CD94/NKG2A normalized to a theoretical Rmax,CD94/NKG2A; CD94/NKG2A analyte concentration 0.000 μM,−0.005
same,Binding of peptide-HLA-E complexes to CD94/NKG2A normalized to a theoretical Rmax,CD94/NKG2A; CD94/NKG2A analyte concentration 0.100 μM,0.025
same,Binding of peptide-HLA-E complexes to CD94/NKG2A normalized to a theoretical Rmax,CD94/NKG2A; CD94/NKG2A analyte concentration 0.200 μM,0.049
same,Binding of peptide-HLA-E complexes to CD94/NKG2A normalized to a theoretical Rmax,CD94/NKG2A; CD94/NKG2A analyte concentration 0.400 μM,0.093
same,Binding of peptide-HLA-E complexes to CD94/NKG2A normalized to a theoretical Rmax,CD94/NKG2A; CD94/NKG2A analyte concentration 0.800 μM,0.160
same,Binding of peptide-HLA-E complexes to CD94/NKG2A normalized to a theoretical Rmax,CD94/NKG2A; CD94/NKG2A analyte concentration 1.600 μM,0.252
same,Binding of peptide-HLA-E complexes to CD94/NKG2A normalized to a theoretical Rmax,CD94/NKG2A; CD94/NKG2A analyte concentration 3.200 μM,0.365
same,Binding of peptide-HLA-E complexes to CD94/NKG2A normalized to a theoretical Rmax,CD94/NKG2A; CD94/NKG2A analyte concentration 6.400 μM,0.479
same,Binding of peptide-HLA-E complexes to CD94/NKG2A normalized to a theoretical Rmax,CD94/NKG2A; CD94/NKG2A analyte concentration 12.800 μM,0.577
same,Binding of peptide-HLA-E complexes to CD94/NKG2A normalized to a theoretical Rmax,CD94/NKG2A; CD94/NKG2A analyte concentration 25.600 μM,0.647
same,Binding of peptide-HLA-E complexes to CD94/NKG2A normalized to a theoretical Rmax,CD94/NKG2A; CD94/NKG2A analyte concentration 51.200 μM,0.686
same,Binding of peptide-HLA-E complexes to CD94/NKG2A normalized to a theoretical Rmax,CD94/NKG2A; CD94/NKG2A analyte concentration 102.400 μM,0.719
